The values that follow are results of earlier work, collected in PMC9814429, “First-in-human phase I dose-escalation and dose-expansion trial of the selective MEK inhibitor HL-085 in patients with advanced melanoma harboring NRAS mutations” (BMC Medicine, 2023).

The test system of this data set is NRAS mutant melanoma. Also noted: method as in PMID 28284557. The note with it: phase 3, NRAS mutant melanoma.

Consider `Cn1cnc2c(F)c(Nc3ccc(Br)cc3F)c(C(=O)NOCCO)cc21` [binimetinib], for which the DCR is 58%, the ORR is 15% and the PFS is 2.8 months.
